Active and inactive are the calls of the source. The rule behind the calls is not given here.
Target: Mitogen-activated protein kinase kinase kinase 2 (Homo sapiens) + Dual specificity mitogen-activated protein kinase kinase 5 (Homo sapiens) (UniProt Q9Y2U5+Q13163)
Assay: MEKK2 PB1-MEK5 interaction blockers – biochemical, bead multiplex flow cytometry, wildtype, dose response (AID 1897)
Conditions: MEK5-MEKK2 PB1 binding; for Ki: measured here: Ki from binding competition

Sequence of Mitogen-activated protein kinase kinase kinase 2 (Homo sapiens) + Dual specificity mitogen-activated protein kinase kinase 5 (Homo sapiens) (Q13163 whole entry, looked up): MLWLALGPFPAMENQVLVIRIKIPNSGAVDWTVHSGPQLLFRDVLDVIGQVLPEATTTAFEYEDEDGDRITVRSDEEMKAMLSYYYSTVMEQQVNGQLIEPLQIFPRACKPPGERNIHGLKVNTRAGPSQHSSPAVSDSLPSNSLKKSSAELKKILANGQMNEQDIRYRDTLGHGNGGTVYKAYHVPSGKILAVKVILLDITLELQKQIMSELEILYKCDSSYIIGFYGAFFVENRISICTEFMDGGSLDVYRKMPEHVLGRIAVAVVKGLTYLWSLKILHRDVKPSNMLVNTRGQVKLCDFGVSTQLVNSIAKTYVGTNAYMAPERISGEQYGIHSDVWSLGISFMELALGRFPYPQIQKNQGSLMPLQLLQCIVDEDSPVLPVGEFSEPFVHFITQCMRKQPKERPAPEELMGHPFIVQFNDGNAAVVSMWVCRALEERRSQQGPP
Sequence of Mitogen-activated protein kinase kinase kinase 2 (Homo sapiens) + Dual specificity mitogen-activated protein kinase kinase 5 (Homo sapiens) (Q9Y2U5 whole entry, looked up): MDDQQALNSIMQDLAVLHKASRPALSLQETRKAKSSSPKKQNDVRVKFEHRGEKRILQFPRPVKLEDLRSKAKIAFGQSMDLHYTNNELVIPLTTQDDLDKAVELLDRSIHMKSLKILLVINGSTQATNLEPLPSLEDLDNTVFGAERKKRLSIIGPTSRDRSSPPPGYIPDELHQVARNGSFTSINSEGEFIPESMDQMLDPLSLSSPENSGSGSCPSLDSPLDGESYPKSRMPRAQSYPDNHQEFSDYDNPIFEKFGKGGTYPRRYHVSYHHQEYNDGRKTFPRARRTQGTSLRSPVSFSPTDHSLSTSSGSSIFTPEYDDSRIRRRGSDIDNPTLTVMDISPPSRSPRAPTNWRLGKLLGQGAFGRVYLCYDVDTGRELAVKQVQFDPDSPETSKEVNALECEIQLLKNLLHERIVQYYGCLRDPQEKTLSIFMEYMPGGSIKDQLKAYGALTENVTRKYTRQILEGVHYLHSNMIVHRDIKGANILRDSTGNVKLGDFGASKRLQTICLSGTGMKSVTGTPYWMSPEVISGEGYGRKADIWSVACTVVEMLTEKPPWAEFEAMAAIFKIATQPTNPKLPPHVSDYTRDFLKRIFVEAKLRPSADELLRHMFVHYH

SMILES | EC50 | Ki
C#CCOCCOCCOCCNc1nc(N2CCN(C(=O)[C@H]([C@@H](C)CC)n3cc([C@@H](N)CC(C)C)nn3)CC2)nc(N2CCN(C(=O)[C@H](Cc3cc4ccccc4[nH]3)n3cc([C@@H](N)CC(C)C)nn3)CC2)n1 | 7.74 µM | –
O=C1Nc2ccc(Br)cc2/C1=N/N=C/C1=C(N2CCOCC2)C(=C\c2ccccc2)/CC1 | 1.87 µM | 1680 nM
CN1CCN(CC(=O)N2CCn3c4c(c5cc(C6CCCCC6)ccc53)CCCC42)CC1 (stereo unspecified) | > 30 µM (inactive) | –
COc1ccc(Cn2c(SCc3ccccc3C)nc3cc(OC)c(OC)cc3c2=N)cc1 | > 30 µM (inactive) | –
NC(=O)CSc1nnc(Cc2ccc3c(c2)OCO3)o1 | > 30 µM (inactive) | –
CCN1/C(=C/C(C)=C/c2sc3ccccc3[n+]2CC)Sc2ccccc21 | 0.53 µM | 470 nM
CN1C(=CC=C2C=C(I)C(=O)C(I)=C2)C(C)(C)c2ccccc21 | 9.16 µM | 8200 nM
CN(C)CCCN(C(=O)c1ccc2c(c1)CCCC2)c1nc2ccc(Cl)cc2s1 | > 30 µM (inactive) | –
C#CCOCCOCCOCCNc1nc(N2CCN(C(=O)[C@H]([C@@H](C)CC)n3cc([C@@H](N)CC(C)C)nn3)CC2)nc(N2CCN(C(=O)[C@H](Cc3cc4ccccc4[nH]3)n3cc([C@@H](N)Cc4ccc(O)cc4)nn3)CC2)n1 | > 30 µM (inactive) | –
CCOC(=O)N1CCN(c2c(N3CCN(c4ccccc4F)CC3)c(=O)c2=O)CC1 | > 30 µM (inactive) | –
COc1cc(CNCCc2c[nH]c3ccccc23)ccc1OCc1ccccc1F | > 30 µM (inactive) | –
CN1CCN(CC(O)COc2ccc(C34CC5CC(CC(C5)C3)C4)cc2)CC1 (stereo unspecified) | > 30 µM (inactive) | –
CN(C)CCCn1c(SCC(=O)Nc2nc(-c3cccc(Br)c3)cs2)nc2ccccc2c1=O | > 30 µM (inactive) | –
CN(c1ccccc1)c1ccc(/C=c2\s/c(=C(/C#N)C(=O)C(C)(C)C)n(Cc3ccco3)c2=O)cc1 | 0.67 µM | 600 nM
Cc1cc2ccccc2n1CCNC(=O)c1ccc(Br)o1 | 3.48 µM | 3120 nM
CNC(=O)C(=O)Nc1c(C)cc(C)cc1C | > 30 µM (inactive) | –
CCCSc1ncnc2sc(C)c(C)c12 | > 30 µM (inactive) | –
CCOc1ccc(C2=C/C(=C/c3cccnc3)C(=O)O2)cc1 | > 30 µM (inactive) | –
Cc1ccnc(NC(=O)C2(c3cccs3)CCOCC2)c1 | > 30 µM (inactive) | –
S=c1[nH]nc(-c2ccc(Cl)cc2)n1-c1ccc2c(c1)OCCO2 | > 30 µM (inactive) | –
CCN1/C(=C/c2ccc3cc(C)cc(C)c3[n+]2CC)Sc2cc(C)ccc21 | 1.88 µM | 1680 nM

SMILES | EC50 | Ki
N#CC(C#N)=c1ccc2c(c1)N1C(c3ccccc3)=CC(c3ccccc3)C3CCCCC31N=2 (stereo unspecified) | 1.95 µM | 1750 nM
C#CCOCCOCCOCCNc1nc(N2CCN(C(=O)[C@H](Cc3ccc(O)cc3)n3cc([C@@H](N)C(C)CC)nn3)CC2)nc(N2CCN(C(=O)[C@H](Cc3cc4ccccc4[nH]3)n3cc([C@@H](N)Cc4ccc(O)cc4)nn3)CC2)n1 (stereo partly specified) | 12.5 µM | –
CCOc1cccc2sc(N(CCCN(C)C)C(=O)c3ccc(S(=O)(=O)N4CCc5ccccc5C4)cc3)nc12 | 13.2 µM | –
CCN1CCN(Cc2ccc(NC(=O)c3cc(NC(=O)c4cncc(-c5cccs5)c4)cc(OC)c3)cc2C(F)(F)F)CC1 | > 30 µM (inactive) | –
CCN1CCN(Cc2ccc(NC(=O)c3ccc(C)c(NC(=O)C(=O)c4c[nH]c5ccccc45)c3)cc2C(F)(F)F)CC1 | > 30 µM (inactive) | –
COc1ccc(/C=N/Nc2cc(C)nc3ccc(Br)cc23)cc1 | 1.94 µM | –
COC(=O)c1c(C)oc(C)c1S(=O)(=O)N(Cc1ccccc1)C(C)C | > 30 µM (inactive) | –
CCOC(=O)C(C(=O)OCC)c1cc(Br)c2noc3c2c1C(=O)c1ccccc1-3 | 2.82 µM | 2530 nM
CCN1CCN(Cc2ccc(NC(=O)c3cc(NC(=O)C(=O)c4c[nH]c5ccccc45)cc(OC)c3)cc2C(F)(F)F)CC1 | 0.34 µM | –
COc1ccc(N2CC(C(=O)Nc3nnc(SCc4ccccn4)s3)CC2=O)cc1 (stereo unspecified) | > 30 µM (inactive) | –
CCN1CCN(Cc2ccc(NC(=O)c3cc(NC(=O)c4cnn(-c5ccccc5)c4N)cc(OC)c3)cc2C(F)(F)F)CC1 | > 30 µM (inactive) | –
C#CCOCCOCCOCCNc1nc(N2CCN(C(=O)[C@H](CCC(=O)O)n3cc(C(N)CO)nn3)CC2)nc(N2CCN(C(=O)[C@H](Cc3cc4ccccc4[nH]3)n3cc(C(N)[C@H](C)CC)nn3)CC2)n1 (stereo partly specified) | > 30 µM (inactive) | –
Cc1cc2ccccc2n1CCNC(=O)c1cccs1 | 14.6 µM | 13000 nM
CC(C)n1cc(CN2CCC(C(=O)Nc3cccc(-c4cccc(Cl)c4)c3)CC2)cn1 | > 30 µM (inactive) | –
COc1ccccc1N1CCN(S(=O)(=O)c2ccc(Cl)s2)CC1 | > 30 µM (inactive) | –
COc1ccc(C(CCNCc2ccc(OC(C)C)cc2)c2ccccc2OC)cc1 (stereo unspecified) | > 30 µM (inactive) | –
Cc1cc2cc(CNC(=O)NC3CCCCC3)ccc2[nH]1 | 4.13 µM | 3690 nM
O=C1c2ccccc2-c2onc3ccc(NCCCn4ccnc4)c1c23 | > 30 µM (inactive) | –
Nc1cc2nc[nH]c2cc1N | 10.7 µM | 9610 nM
CCCCCCCCCCOC(=O)Cn1c(COc2ccccc2)[n+](C)c2ccccc21 | 2.6 µM | –
COc1ccc2nc(C)cc(N/N=C/c3cccc(OC)c3O)c2c1 | > 30 µM (inactive) | –

SMILES | EC50 | Ki
COc1ccc(-n2nc3c(N)n[nH]c3cc2=O)cc1 | 1.48 µM | 1330 nM
CC(=O)Nc1cccc2c1C(=O)N(c1cccc(C)c1)C2=O | > 30 µM (inactive) | –
CCN(CC)CCOC(=O)c1ccc(NC(=O)c2cn(-c3ccccc3)nc2-c2cccs2)cc1 | > 30 µM (inactive) | –
Cc1ccc(CN2CCSc3ccc(C(=O)NC4CCN(Cc5ccccc5)CC4)cc32)cc1 | 5.13 µM | –
C=CC#CC[N+]1(CC#Cc2ccccc2)CCOCC1 | > 30 µM (inactive) | –
CC(=O)c1c(C)[nH]c(C(=O)NC2=NCCS2)c1C | > 30 µM (inactive) | –
O=[N+]([O-])c1ccc(/C=C/C2=NN(c3ccccc3)C(c3ccco3)C2)o1 (stereo unspecified) | > 30 µM (inactive) | –
N=C(N)SCc1cn(-c2ccccc2)nc1-c1ccc(Br)cc1 | 3.13 µM | –
CCCCN(CC)CCNC(=O)c1cc2c(-c3ccc(Cl)cc3)nn(C)c2s1 | 14.4 µM | –
COc1ccc2[nH]c3c(C)c4ccncc4c(C)c3c2c1 | > 30 µM (inactive) | –
CCNc1ccc2noc3c2c1C(=O)c1ccccc1-3 | 4.95 µM | 4430 nM
COc1ccc(Cn2c(SCc3ccc(C)cc3)nc3cc(OC)c(OC)cc3c2=N)cc1Cl | 1.97 µM | –
CC(C)N=c1cc2n(-c3ccc(Cl)cc3)c3ccccc3nc-2cc1Nc1ccc(Cl)cc1 | > 30 µM (inactive) | –
CCCCCc1cc(=O)oc2c(C(CCN3CCCC3)c3ccc(N(C)C)cc3)c(OC)cc(OC)c12 (stereo unspecified) | 20.9 µM | –
COc1ccc2nc(C)cc(N/N=C/c3ccc(F)cc3)c2c1 | > 30 µM (inactive) | –
CCc1ccc(Nc2n[n+](-c3ccccc3)c(-c3ccc(OC)c(Br)c3)s2)cc1 | 2.85 µM | –
CCOC(=O)c1c(CSC(=N)N)n(-c2ccc(C)cc2)c2cc(Br)c(OC(C)=O)cc12 | 5.2 µM | –
Cc1ccc(-n2cc(CNCCCn3ccnc3C)c(-c3ccc(F)cc3)n2)cc1 | > 30 µM (inactive) | –
COc1cccc(OC)c1-c1nn2c(-c3cc(-c4ccccc4)n[nH]3)nnc2s1 | 5.32 µM | 4760 nM
CCN(CC)CCOC(=O)c1ccc(N/C=C(/C#N)c2nc(-c3cccc(OC)c3)cs2)cc1 | > 30 µM (inactive) | –
